Measured values taken from patent US6492559B1, “Alkylated aminoether surfactants” (Air Products and Chemicals, Inc., priority 1998, dated 2002).

Legend:
Assay type in all cases: physicochemical
[1] = Dynamic surface tension of aqueous solutions, maximum bubble pressure method
Text: where n is 2-6, preferably 2-4; m is 0-4, preferably 0-2; and p and q are 2-6, preferably 2 or 3; and R and R′ independently are an alkyl group comprising 5 to 18 carbons, preferably 5 to 8 carbons which is branched or in which the point of attachment to nitrogen is on a nonterminal carbon, for the reduction of equilibrium and dynamic surface tension in water-based compositions containing an organic compound, particularly coating, ink, and agricultural compositions containing organic compounds such as polymeric resins, herbicides, pesticides or plant growth modifying agents. […] The maximum-bubble-pressure method of measuring surface tension is described in Langmuir 1986, 2, 428-432, which is incorporated by reference.
Dynamic surface tension data were obtained for aqueous solutions of the reductive alkylation product of the dialkylated aminoethylether of Example 1 using the maximum bubble pressure method at bubble rates from 0.1 bubbles/second (b/s) to 20 b/s. […] In practical terms, high bubble rates correspond to high printing speeds in lithographic printing, high spray or roller velocities in coating applications, and rapid application rates for agricultural products.

Solubility in water = experiment: Solubility in water
[2] = Foam test based upon ASTM D 1173-53; settings: 0.1 wt % solution
Protocol: The foaming properties of 0.1 wt % solutions of the reductive alkylation products of the products of this invention were examined using a procedure based upon ASTM D 1173-53. In this test, a 0.1 wt % solution of the surfactant is added from an elevated foam pipette to a foam receiver containing the same solution. The foam height is measured at the completion of the addition (“Initial Foam Height”) and the time required for the foam to dissipate is recorded (“Time to 0 Foam”). This test provides a comparison between the foaming characteristics of various surfactant solutions. In general, in coatings, inks, and agricultural formulations, foam is undesirable because is complicates handling and can lead to coating and print defects, and to inefficient application of agricultural materials.

## CC(C)CC(C)NCCOCCNC(C)CC(C)C (stereo not shown) [AEE/MIBK2]
[1]; 0.03 wt % in water, 0.1 b/s
  Dynamic Surface Tension: 37.9 dyne/cm
[1]; 0.03 wt % in water, 1 b/s
  Dynamic Surface Tension: 39.0 dyne/cm
[1]; 0.03 wt % in water, 6 b/s
  Dynamic Surface Tension: 42.8 dyne/cm
[1]; 0.03 wt % in water, 15 b/s
  Dynamic Surface Tension: 47.9 dyne/cm
[1]; 0.03 wt % in water, 20 b/s
  Dynamic Surface Tension: 48.2 dyne/cm
[1]; 0.05 wt % in water, 0.1 b/s
  Dynamic Surface Tension: 34.7 dyne/cm
[1]; 0.05 wt % in water, 1 b/s
  Dynamic Surface Tension: 35.4 dyne/cm
[1]; 0.05 wt % in water, 6 b/s
  Dynamic Surface Tension: 37.6 dyne/cm
[1]; 0.05 wt % in water, 15 b/s
  Dynamic Surface Tension: 40.9 dyne/cm
[1]; 0.05 wt % in water, 20 b/s
  Dynamic Surface Tension: 41.9 dyne/cm
[1]; 0.07 wt % in water, 0.1 b/s
  Dynamic Surface Tension: 32.4 dyne/cm
[1]; 0.07 wt % in water, 1 b/s
  Dynamic Surface Tension: 33.0 dyne/cm
[1]; 0.07 wt % in water, 6 b/s
  Dynamic Surface Tension: 34.5 dyne/cm
[1]; 0.07 wt % in water, 15 b/s
  Dynamic Surface Tension: 36.8 dyne/cm
[1]; 0.07 wt % in water, 20 b/s
  Dynamic Surface Tension: 37.7 dyne/cm
[1]; 0.1 wt % in water, 0.1 b/s
  Dynamic Surface Tension: 30.3 dyne/cm
[1]; 0.1 wt % in water, 1 b/s
  Dynamic Surface Tension: 30.8 dyne/cm
[1]; 0.1 wt % in water, 6 b/s
  Dynamic Surface Tension: 31.8 dyne/cm
[1]; 0.1 wt % in water, 15 b/s
  Dynamic Surface Tension: 33.4 dyne/cm
[1]; 0.1 wt % in water, 20 b/s
  Dynamic Surface Tension: 34.1 dyne/cm
[1]; 0.15 wt % in water, 0.1 b/s
  Dynamic Surface Tension: 27.6 dyne/cm
[1]; 0.15 wt % in water, 1 b/s
  Dynamic Surface Tension: 27.9 dyne/cm
[1]; 0.15 wt % in water, 6 b/s
  Dynamic Surface Tension: 28.7 dyne/cm
[1]; 0.15 wt % in water, 15 b/s
  Dynamic Surface Tension: 30.1 dyne/cm
[1]; 0.15 wt % in water, 20 b/s
  Dynamic Surface Tension: 30.6 dyne/cm
[1]; 0.2 wt % in water, 0.1 b/s
  Dynamic Surface Tension: 26.7 dyne/cm
[1]; 0.2 wt % in water, 1 b/s
  Dynamic Surface Tension: 26.9 dyne/cm
[1]; 0.2 wt % in water, 6 b/s
  Dynamic Surface Tension: 27.4 dyne/cm
[1]; 0.2 wt % in water, 15 b/s
  Dynamic Surface Tension: 28.8 dyne/cm
[1]; 0.2 wt % in water, 20 b/s
  Dynamic Surface Tension: 29.3 dyne/cm
Solubility in water
  solubility limit: about 0.2 wt %

## CC(C)CC(C)NCCCOCCCNC(C)CC(C)C (stereo not shown) [APE/MIBK2]
[1]; 0.1 wt % in water, 0.1 b/s
  Dynamic Surface Tension: 30.8 dyne/cm
[1]; 0.1 wt % in water, 1 b/s
  Dynamic Surface Tension: 31.3 dyne/cm
[1]; 0.1 wt % in water, 6 b/s
  Dynamic Surface Tension: 32.6 dyne/cm
[1]; 0.1 wt % in water, 15 b/s
  Dynamic Surface Tension: 34.4 dyne/cm
[1]; 0.1 wt % in water, 20 b/s
  Dynamic Surface Tension: 34.9 dyne/cm
[1]; 0.15 wt % in water, 0.1 b/s
  Dynamic Surface Tension: 29.3 dyne/cm
[1]; 0.15 wt % in water, 1 b/s
  Dynamic Surface Tension: 29.9 dyne/cm
[1]; 0.15 wt % in water, 6 b/s
  Dynamic Surface Tension: 30.1 dyne/cm
[1]; 0.15 wt % in water, 15 b/s
  Dynamic Surface Tension: 32.9 dyne/cm
[1]; 0.15 wt % in water, 20 b/s
  Dynamic Surface Tension: 33.3 dyne/cm
[2]
  Initial Foam Height: 1.0 cm
  Time to 0 Foam: 2 s

## CC(C)CC(C)NCCCOCCOCCCNC(C)CC(C)C (stereo not shown) [BAPE/MIBK2]
[1]; 0.1 wt % in water, 0.1 b/s
  Dynamic Surface Tension: 35.5 dyne/cm
[1]; 0.1 wt % in water, 1 b/s
  Dynamic Surface Tension: 36.0 dyne/cm
[1]; 0.1 wt % in water, 6 b/s
  Dynamic Surface Tension: 37.2 dyne/cm
[1]; 0.1 wt % in water, 15 b/s
  Dynamic Surface Tension: 38.7 dyne/cm
[1]; 0.1 wt % in water, 20 b/s
  Dynamic Surface Tension: 39.2 dyne/cm
[1]; 0.2 wt % in water, 0.1 b/s
  Dynamic Surface Tension: 31.6 dyne/cm
[1]; 0.2 wt % in water, 1 b/s
  Dynamic Surface Tension: 32.0 dyne/cm
[1]; 0.2 wt % in water, 6 b/s
  Dynamic Surface Tension: 32.9 dyne/cm
[1]; 0.2 wt % in water, 15 b/s
  Dynamic Surface Tension: 33.8 dyne/cm
[1]; 0.2 wt % in water, 20 b/s
  Dynamic Surface Tension: 34.1 dyne/cm
[1]; 0.5 wt % in water, 0.1 b/s
  Dynamic Surface Tension: 29.7 dyne/cm
[1]; 0.5 wt % in water, 1 b/s
  Dynamic Surface Tension: 29.8 dyne/cm
[1]; 0.5 wt % in water, 6 b/s
  Dynamic Surface Tension: 30.1 dyne/cm
[1]; 0.5 wt % in water, 15 b/s
  Dynamic Surface Tension: 30.8 dyne/cm
[1]; 0.5 wt % in water, 20 b/s
  Dynamic Surface Tension: 31.0 dyne/cm
[2]
  Initial Foam Height: 2.6 cm
  Time to 0 Foam: 8 s
Solubility in water
  solubility (in words): relatively high solubility

## CC(C)CC(C)NCCCOCCOCCOCCCNC(C)CC(C)C (stereo not shown) [BAPEE/MIBK2]
[1]; 0.1 wt % in water, 0.1 b/s
  Dynamic Surface Tension: 39.2 dyne/cm
[1]; 0.1 wt % in water, 1 b/s
  Dynamic Surface Tension: 39.7 dyne/cm
[1]; 0.1 wt % in water, 6 b/s
  Dynamic Surface Tension: 40.8 dyne/cm
[1]; 0.1 wt % in water, 15 b/s
  Dynamic Surface Tension: 42.0 dyne/cm
[1]; 0.1 wt % in water, 20 b/s
  Dynamic Surface Tension: 42.2 dyne/cm
[1]; 0.5 wt % in water, 0.1 b/s
  Dynamic Surface Tension: 30.6 dyne/cm
[1]; 0.5 wt % in water, 1 b/s
  Dynamic Surface Tension: 30.7 dyne/cm
[1]; 0.5 wt % in water, 6 b/s
  Dynamic Surface Tension: 31.0 dyne/cm
[1]; 0.5 wt % in water, 15 b/s
  Dynamic Surface Tension: 31.8 dyne/cm
[1]; 0.5 wt % in water, 20 b/s
  Dynamic Surface Tension: 32.2 dyne/cm
[2]
  Initial Foam Height: 3.1 cm
  Time to 0 Foam: 5 s
